Assay results reported in patent US20120122924A1, “NAMPT INHIBITORS” (ABBOTT LABORATORIES, priority 2010, published 2012).
pIC50: −log10 of the molar value.

Target: recombinant, human, C-terminally-His tagged NAMPT (Homo sapiens, UniProt P43490)
Assay: Time-Resolved Fluorescence Resonance Energy Transfer (TR-FRET) binding assay of NAMPT
Settings: 6.8 nM NAMPT, 200 nM probe (Oregon Green 488-conjugated APO866), 1 nM Tb-anti-His antibody, 2-3 hours
Procedure: Determination of the utility of compounds having Formula (I) as binders to and inhibitors of NAMPT was performed using a Time-Resolved Fluorescence Resonance Energy Transfer (TR-FRET) binding assay.
Time-Resolved Fluorescence Resonance Energy Transfer (TR-FRET) Binding Assay of NAMPT
The assay was carried out in 18 uL low volume plates (Owens Corning) in reaction buffer (50 mM HEPES (NaOH), pH 7.5, 100 mM NaCl, 10 mM MgCl2, 1 mM DTT, 1% Glycerol) using 6.8 nM recombinant, human, C-terminally-His tagged NAMPT, 1 nM Tb-anti-His antibody (Invitrogen, Cat # PV5895), and 200 nM probe (Oregon Green 488-conjugated APO866; A-1251667.0). Plates were covered, and reactions were carried out for 2-3 hours. Plates were read with Envision (Laser Lantha low volume protocol) after 2 to 3 hours. Excitation was carried out at 337 nm, and the ratio of emission of Oregon Green (520 nm) to terbium (492 nm) was determined and used to calculate IC50 values of test compounds.

Chain of recombinant, human, C-terminally-His tagged NAMPT (P43490 whole entry): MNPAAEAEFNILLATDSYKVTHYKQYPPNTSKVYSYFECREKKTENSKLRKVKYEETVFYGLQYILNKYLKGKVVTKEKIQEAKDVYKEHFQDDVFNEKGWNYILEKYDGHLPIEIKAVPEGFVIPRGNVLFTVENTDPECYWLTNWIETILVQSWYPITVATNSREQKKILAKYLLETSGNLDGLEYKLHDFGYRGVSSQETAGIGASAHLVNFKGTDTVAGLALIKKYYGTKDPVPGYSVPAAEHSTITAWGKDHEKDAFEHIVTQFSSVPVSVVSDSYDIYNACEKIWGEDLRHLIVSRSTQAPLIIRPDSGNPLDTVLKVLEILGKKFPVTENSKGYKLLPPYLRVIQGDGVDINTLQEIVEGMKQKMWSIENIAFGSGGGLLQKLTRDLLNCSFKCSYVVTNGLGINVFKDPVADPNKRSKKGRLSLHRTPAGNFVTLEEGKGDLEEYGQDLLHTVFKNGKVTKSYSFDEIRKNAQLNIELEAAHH

Row | pIC50 | SMILES
1 | 7.36 | CC(C)CCn1cc(NC(=O)c2ccc(NC(=O)N3CCc4ccccc4C3)cc2)cn1 [Example 11, N-(4-{[1-(3-methylbutyl)-1H-pyrazol-4-yl]carbamoyl}phenyl)-3,4-dihydroisoquinoline-2(1H)-carboxamide]
2 | 7.23 | CC(=O)N1CC=C(c2ccc(NC(=O)N3CCc4ccccc4C3)cc2)CC1 [Example 50, N-[4-(1-acetyl-1,2,3,6-tetrahydropyridin-4-yl)phenyl]-3,4-dihydroisoquinoline-2(1H)-carboxamide]
3 | 6.10 | O=C(Cc1ccc(NC(=O)N2CCc3ccccc3C2)cc1)NCCc1cccs1 [Example 26, N-[4-(2-oxo-2-{[2-(2-thienyl)ethyl]amino}ethyl)phenyl]-3,4-dihydroisoquinoline-2(1H)-carboxamide]
4 | 6.05 | O=C(Nc1ccc(-c2noc(Cc3ccccc3)n2)cc1)N1CCc2ccccc2C1 [Example 57, N-[4-(5-benzyl-1,2,4-oxadiazol-3-yl)phenyl]-3,4-dihydroisoquinoline-2(1H)-carboxamide]
5 | 6.75 | CC(C)CCNC(=O)c1ccc(NC(=O)N2CCc3ccccc3C2)cn1 [Example 18, N-{6-[(3-methylbutyl)carbamoyl]pyridin-3-yl}-3,4-dihydroisoquinoline-2(1H)-carboxamide]
6 | 5.99 | O=C(Cc1ccc(NC(=O)N2CCc3ccccc3C2)cc1)NCCCc1ccccc1 [Example 27, N-(4-{2-oxo-2-[(3-phenylpropyl)amino]ethyl}phenyl)-3,4-dihydroisoquinoline-2(1H)-carboxamide]
7 | 7.83 | CSCCC(=O)Nc1ccc(NC(=O)N2CCc3ccccc3C2)cc1 [Example 76, N-(4-{[3-(methylthio)propanoyl]amino}phenyl)-3,4-dihydroisoquinoline-2(1H)-carboxamide]
8 | 7.41 | CC(C)Cn1cc(-c2ccc(NC(=O)N3CCc4ccccc4C3)cc2)cn1 [Example 34, N-[4-(1-isobutyl-1H-pyrazol-4-yl)phenyl]-3,4-dihydroisoquinoline-2(1H)-carboxamide]
9 | 6.80 | O=C(CCN1CCOCC1)Nc1ccc(NC(=O)N2CCc3ccccc3C2)cc1 [Example 95, N-(4-{[3-(morpholin-4-yl)propanoyl]amino}phenyl)-3,4-dihydroisoquinoline-2(1H)-carboxamide]
10 | 5.86 | CCOC(=O)CCCCCNC(=O)N1CCc2ccccc2C1 [Example 60, ethyl 6-[(3,4-dihydroisoquinolin-2(1H)-ylcarbonyl)amino]hexanoate]
11 | 7.06 | COCCOCC(=O)Nc1ccc(NC(=O)N2CCc3ccccc3C2)cc1 [Example 74, N-(4-{[(2-methoxyethoxy)acetyl]amino}phenyl)-3,4-dihydroisoquinoline-2(1H)-carboxamide]
12 | 7.26 | COC1CCC(C(=O)Nc2ccc(NC(=O)N3CCc4ccccc4C3)cc2)CC1 (stereo not drawn) [Example 64, N-(4-{[(4-methoxycyclohexyl)carbonyl]amino}phenyl)-3,4-dihydroisoquinoline-2(1H)-carboxamide]
13 | 7.88 | O=C(Nc1ccc(C(=O)N2CCN(c3ccccn3)CC2)cc1)N1CCc2ccccc2C1 [Example 2, N-(4-{[4-(pyridin-2-yl)piperazin-1-yl]carbonyl}phenyl)-3,4-dihydroisoquinoline-2(1H)-carboxamide]
14 | 8.19 | CCC(C)CC(=O)Nc1ccc(NC(=O)N2CCc3ccccc3C2)cc1 (racemic) [Example 69, N-{4-[((3R)-3-methylpentanoyl)amino]phenyl}-3,4-dihydroisoquinoline-2(1H)-carboxamide and N-{4-[((3S)-3-methylpentanoyl)amino]phenyl}-3,4-dihydroisoquinoline-2(1H)-carboxamide]
15 | 6.96 | CCC(C)(C)C(=O)Nc1ccc(NC(=O)N2CCc3ccccc3C2)cc1 [Example 70, N-{4-[(2,2-dimethylbutanoyl)amino]phenyl}-3,4-dihydroisoquinoline-2(1H)-carboxamide]
16 | 6.50 | O=C(Nc1ccc(NC(=O)N2CCc3ccccc3C2)cc1)c1ccno1 [Example 90, N-{4-[(1,2-oxazol-5-ylcarbonyl)amino]phenyl}-3,4-dihydroisoquinoline-2(1H)-carboxamide]
17 | 7.97 | O=C(COCc1ccccc1)Nc1ccc(NC(=O)N2CCc3ccccc3C2)cc1 [Example 63, N-(4-{[(benzyloxy)acetyl]amino}phenyl)-3,4-dihydroisoquinoline-2(1H)-carboxamide]
18 | 8.35 | O=C(Nc1ccc(NC(=O)N2CCc3ccccc3C2)cc1)C1Cc2ccccc2O1 (racemic) [Example 68, N-{4-[((2R)-2,3-dihydro-1-benzofuran-2-ylcarbonyl)amino]phenyl}-3,4-dihydroisoquinoline-2(1H)-carboxamide and N-{4-[((2S)-2,3-dihydro-1-benzofuran-2-ylcarbonyl)amino]phenyl}-3,4-dihydroisoquinoline-2(1H)-carboxamide]

Row | pIC50 | SMILES
19 | 7.63 | O=C(NCc1ccccc1)c1ccc(NC(=O)N2CCc3ccccc3C2)cc1 [Example 8, N-[4-(benzylcarbamoyl)phenyl]-3,4-dihydroisoquinoline-2(1H)-carboxamide]
20 | 7.07 | Cc1cc(C(=O)Nc2ccc(NC(=O)N3CCc4ccccc4C3)cc2)c(C)o1 [Example 84, N-{4-[(2,5-dimethyl-3-furoyl)amino]phenyl}-3,4-dihydroisoquinoline-2(1H)-carboxamide]
21 | 7.86 | O=C(NCCCc1ccccc1)c1ccc(NC(=O)N2CCc3cc(F)ccc3C2)cc1 [Example 3, 6-fluoro-N-{4-[(3-phenylpropyl)carbamoyl]phenyl}-3,4-dihydroisoquinoline-2(1H)-carboxamide]
22 | 6.42 | O=C(Nc1ccc(NC(=O)N2CCc3ccccc3C2)cc1)c1ccc[nH]1 [Example 86, N-{4-[(1H-pyrrol-2-ylcarbonyl)amino]phenyl}-3,4-dihydroisoquinoline-2(1H)-carboxamide]
23 | 7.31 | CC(C)(C)OC(=O)N1CC=C(c2ccc(NC(=O)N3CCc4ccccc4C3)cc2)CC1 [Example 49, tert-butyl 4-{4-[(3,4-dihydroisoquinolin-2(1H)-ylcarbonyl)amino]phenyl}-3,6-dihydropyridine-1(2H)-carboxylate]
24 | 7.92 | O=C(CCCc1ccccc1)Nc1ccc(NC(=O)N2CCc3ccccc3C2)cc1 [Example 32, N-{4-[(4-phenylbutanoyl)amino]phenyl}-3,4-dihydroisoquinoline-2(1H)-carboxamide]
25 | 6.54 | O=C(NCCCc1ccccc1)c1ccc(NC(=O)N2CCc3ccccc3C2)cn1 [Example 21, N-{6-[(3-phenylpropyl)carbamoyl]pyridin-3-yl}-3,4-dihydroisoquinoline-2(1H)-carboxamide]
26 | 6.36 | CC(C)CCN1CC=C(c2ccc(NC(=O)N3CCc4ccccc4C3)cc2)CC1 [Example 55, N-{4-[1-(3-methylbutyl)-1,2,3,6-tetrahydropyridin-4-yl]phenyl}-3,4-dihydroisoquinoline-2(1H)-carboxamide]
27 | 7.53 | CC(C)CCNC(=O)c1ccc(NC(=O)N2CCc3ccccc3C2)nc1 [Example 10, N-{5-[(3-methylbutyl)carbamoyl]pyridin-2-yl}-3,4-dihydroisoquinoline-2(1H)-carboxamide]
28 | 7.34 | O=C(NCCc1cccs1)c1ccc(NC(=O)N2CCc3cc(F)ccc3C2)cc1 [Example 13, 6-fluoro-N-(4-{[2-(2-thienyl)ethyl]carbamoyl}phenyl)-3,4-dihydroisoquinoline-2(1H)-carboxamide]
29 | 7.39 | O=C(CCc1cccs1)Nc1ccc(NC(=O)N2CCc3ccccc3C2)cc1 [Example 33, N-(4-{[3-(2-thienyl)propanoyl]amino}phenyl)-3,4-dihydroisoquinoline-2(1H)-carboxamide]
30 | 5.90 | CC(C)CCc1nc(-c2ccc(NC(=O)N3CCc4ccccc4C3)cc2)no1 [Example 58, N-{4-[5-(3-methylbutyl)-1,2,4-oxadiazol-3-yl]phenyl}-3,4-dihydroisoquinoline-2(1H)-carboxamide]
31 | 6.71 | O=C(Nc1ccc(NC(=O)N2CCc3ccccc3C2)cc1)C1CCOC1 (racemic) [Example 75, N-{4-[((3R)-tetrahydrofuran-3-ylcarbonyl)amino]phenyl}-3,4-dihydroisoquinoline-2(1H)-carboxamide and N-{4-[((3S)-tetrahydrofuran-3-ylcarbonyl)amino]phenyl}-3,4-dihydroisoquinoline-2(1H)-carboxamide]
32 | 7.80 | CC(C)CCNC(=O)c1ccc(NC(=O)N2CCc3cnccc3C2)cc1 [Example 5, N-{4-[(3-methylbutyl)carbamoyl]phenyl}-3,4-dihydro-2,6-naphthyridine-2(1H)-carboxamide]
33 | 8.56 | CC(C)(C)CC(=O)Nc1ccc(NC(=O)N2CCc3ccccc3C2)cc1 [Example 71, N-{4-[(3,3-dimethylbutanoyl)amino]phenyl}-3,4-dihydroisoquinoline-2(1H)-carboxamide]
34 | 6.94 | CC(=O)N1CCC(C(=O)Nc2ccc(NC(=O)N3CCc4ccccc4C3)cc2)CC1 [Example 65, N-(4-{[(1-acetylpiperidin-4-yl)carbonyl]amino}phenyl)-3,4-dihydroisoquinoline-2(1H)-carboxamide]
35 | 5.83 | O=C(Nc1ccc(C(F)(F)F)cc1)N1CCc2ccccc2C1 [Example 97, N-[4-(trifluoromethyl)phenyl]-3,4-dihydroisoquinoline-2(1H)-carboxamide]
36 | 6.87 | O=C(Nc1ccc(NC(=O)N2CCc3ccccc3C2)cc1)c1ccn[nH]1 [Example 88, N-{4-[(1H-pyrazol-5-ylcarbonyl)amino]phenyl}-3,4-dihydroisoquinoline-2(1H)-carboxamide]
